Target: T1, human neuraminidase 2 (NEU2) (Homo sapiens, UniProt Q9Y3R4)
T1 construct: made in house
Assay: Time-resolved CUPRA enzyme kinetics, NEU2
Assay type: biochemical
Protocol: To apply CUPRA in this capacity, two or more substrates of interest are introduced, as their corresponding OS^mod, to a solution containing the desired CAZyme. Changes in substrate concentrations, as well as those of the corresponding enzyme products, are determined from the relative abundances of OS^mod-bound ^UniPproxy measured by time-resolved ESI-MS. Because of the manner in which the substrate and product concentrations are measured, the assay is insensitive to differences in their ESI-MS response factors and, consequently, independent of the nature of the chemical modification catalyzed by the enzyme. As a result, time-resolved CUPRA eliminates the need for calibration curves or internal standards, which are generally required with ESI-MS-based enzyme kinetics assays.
Two glycosyl hydrolases, human neuraminidase 2 (NEU2) and 3 (NEU3), which preferentially cleave α2-3-linked Neu5Ac residues, were used to illustrate the ease with which time-resolved CUPRA can establish substrate specificities. We incubated libraries of the Neu5Ac-containing OS^mod with NEU2 (Fig. 2d) or NEU3 (Fig. 2e) and monitored their conversion to the corresponding desialylated OS^mod products at pH 7 and 25 °C. […] All OS^mod containing terminal α2-3-linked Neu5Ac were substrates of NEU3, with initial rates that are 10–50% that of HMO03. […] Substrates containing branching after the α2-3-linkage were poor substrates for both enzymes. […] We note, however, that previous reports have examined NEU2 and NEU3 activity under more acidic solution conditions. Furthermore, the nature of the substrate aglycone may influence the activity of human neuraminidases.
The time-resolved CUPRA measurements were performed by manually mixing aliquots of stock solutions of NEU2 or NEU3 (final concentration 2 µM), ^UniPproxy (5 µM), substrates (Si, 5 µM each) and CUPRA linker (5 µM), all in 200 mM aqueous ammonium acetate at pH 7 and 25 °C. ESI mass spectra were collected continuously at the rate of 30 scans min^−1 starting at 3 min after mixing. The adduct distributions measured for the ^UniPproxy – CUPRA linker complex ions were used to apply SWARM. The time-dependent fractional abundance of a given substrate (FS,i) (Eq. 12), which was used to represent reaction progress, was calculated from the total Ab of ^UniPproxy bound to Si and corresponding product (Pi), corrected for Si consumed prior to data acquisition.12 FS,i=Ab^UniPproxySi/Ab^UniPproxySi+Ab^UniPproxyPi

T1 sequence (Q9Y3R4 whole entry): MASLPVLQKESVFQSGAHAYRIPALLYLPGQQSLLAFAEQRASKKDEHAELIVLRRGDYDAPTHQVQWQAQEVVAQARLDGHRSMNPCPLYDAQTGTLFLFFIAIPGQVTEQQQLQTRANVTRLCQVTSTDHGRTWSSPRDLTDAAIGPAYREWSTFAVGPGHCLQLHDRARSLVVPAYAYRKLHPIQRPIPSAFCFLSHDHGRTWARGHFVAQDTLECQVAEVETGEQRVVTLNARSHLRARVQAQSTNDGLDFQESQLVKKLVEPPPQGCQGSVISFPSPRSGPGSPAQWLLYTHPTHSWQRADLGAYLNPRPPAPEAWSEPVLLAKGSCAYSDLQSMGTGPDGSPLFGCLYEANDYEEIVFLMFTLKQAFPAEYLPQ

## CC(=O)N[C@H]1[C@H](O[C@@H]2[C@H](O[C@]3(C(=O)O)C[C@H](O)[C@@H](NC(C)=O)[C@H]([C@H](O)[C@@H](CO)O[C@]4(C(=O)O)C[C@H](O)[C@@H](NC(C)=O)[C@H]([C@H](O)[C@H](O)CO)O4)O3)[C@@H](O)[C@H](O[C@H]3[C@H](O)[C@@H](O)[C@H](N(CCOCCOCCNC(=O)[C@H](Cc4ccccc4)NC(=O)[C@H](Cc4ccccc4)NC(=O)CCCC(=O)NCCc4ccc(S(N)(=O)=O)cc4)C(C)=O)O[C@@H]3CO)O[C@@H]2CO)O[C@H](CO)[C@H](O)[C@@H]1O [GA10, GalNAcβ1-4(Neu5Acα2-8 Neu5Acα2-3)Galβ1-4Glc-CL]
Time 0 min
  relative abundance of OSmod substrate (Fig2d time course): 0.903
Time 1 min
  relative abundance of OSmod substrate (Fig2d time course): 0.9038
Time 2 min
  relative abundance of OSmod substrate (Fig2d time course): 0.8996
Time 3 min
  relative abundance of OSmod substrate (Fig2d time course): 0.8888
Time 4 min
  relative abundance of OSmod substrate (Fig2d time course): 0.9044
Time 7 min
  relative abundance of OSmod substrate (Fig2d time course): 0.9102
Time 8 min
  relative abundance of OSmod substrate (Fig2d time course): 0.9068
Time 9 min
  relative abundance of OSmod substrate (Fig2d time course): 0.9088
Time 10 min
  relative abundance of OSmod substrate (Fig2d time course): 0.9065
Time 11 min
  relative abundance of OSmod substrate (Fig2d time course): 0.9097
Time 12 min
  relative abundance of OSmod substrate (Fig2d time course): 0.9035
Time 13 min
  relative abundance of OSmod substrate (Fig2d time course): 0.9029
Time 14 min
  relative abundance of OSmod substrate (Fig2d time course): 0.9064
Time 15 min
  relative abundance of OSmod substrate (Fig2d time course): 0.8954
Time 16 min
  relative abundance of OSmod substrate (Fig2d time course): 0.9063
Time 17 min
  relative abundance of OSmod substrate (Fig2d time course): 0.9123
Time 18 min
  relative abundance of OSmod substrate (Fig2d time course): 0.9135
Time 19 min
  relative abundance of OSmod substrate (Fig2d time course): 0.9061
Time 20 min
  relative abundance of OSmod substrate (Fig2d time course): 0.9106
Time 21 min
  relative abundance of OSmod substrate (Fig2d time course): 0.9179
Time 22 min
  relative abundance of OSmod substrate (Fig2d time course): 0.9134
Time 23 min
  relative abundance of OSmod substrate (Fig2d time course): 0.9095
Time 24 min
  relative abundance of OSmod substrate (Fig2d time course): 0.9035
Time 25 min
  relative abundance of OSmod substrate (Fig2d time course): 0.9132
Time 26 min
  relative abundance of OSmod substrate (Fig2d time course): 0.907
Time 27 min
  relative abundance of OSmod substrate (Fig2d time course): 0.9132
Time 28 min
  relative abundance of OSmod substrate (Fig2d time course): 0.9116
Time 29 min
  relative abundance of OSmod substrate (Fig2d time course): 0.9094
Time 30 min
  relative abundance of OSmod substrate (Fig2d time course): 0.9084
Time 31 min
  relative abundance of OSmod substrate (Fig2d time course): 0.9073
Time 32 min
  relative abundance of OSmod substrate (Fig2d time course): 0.915
Time 33 min
  relative abundance of OSmod substrate (Fig2d time course): 0.9164
Time 34 min
  relative abundance of OSmod substrate (Fig2d time course): 0.9136
Time 35 min
  relative abundance of OSmod substrate (Fig2d time course): 0.9113
Time 36 min
  relative abundance of OSmod substrate (Fig2d time course): 0.9057
Time 37 min
  relative abundance of OSmod substrate (Fig2d time course): 0.9031
Time 38 min
  relative abundance of OSmod substrate (Fig2d time course): 0.9043
Time 39 min
  relative abundance of OSmod substrate (Fig2d time course): 0.895
Time 40 min
  relative abundance of OSmod substrate (Fig2d time course): 0.8976
Time 41 min
  relative abundance of OSmod substrate (Fig2d time course): 0.8827
Time 42 min
  relative abundance of OSmod substrate (Fig2d time course): 0.9129
Time 43 min
  relative abundance of OSmod substrate (Fig2d time course): 0.905
Time 44 min
  relative abundance of OSmod substrate (Fig2d time course): 0.9072
Time 45 min
  relative abundance of OSmod substrate (Fig2d time course): 0.9125
Time 46 min
  relative abundance of OSmod substrate (Fig2d time course): 0.9034
Time 47 min
  relative abundance of OSmod substrate (Fig2d time course): 0.9131
Time 48 min
  relative abundance of OSmod substrate (Fig2d time course): 0.9147
Time 49 min
  relative abundance of OSmod substrate (Fig2d time course): 0.9115
Time 50 min
  relative abundance of OSmod substrate (Fig2d time course): 0.9161
Time 51 min
  relative abundance of OSmod substrate (Fig2d time course): 0.9162
Time 52 min
  relative abundance of OSmod substrate (Fig2d time course): 0.9166
Time 53 min
  relative abundance of OSmod substrate (Fig2d time course): 0.9066
Time 54 min
  relative abundance of OSmod substrate (Fig2d time course): 0.9094
Time 55 min
  relative abundance of OSmod substrate (Fig2d time course): 0.9043
Time 56 min
  relative abundance of OSmod substrate (Fig2d time course): 0.9097
Time 57 min
  relative abundance of OSmod substrate (Fig2d time course): 0.9071
Time 58 min
  relative abundance of OSmod substrate (Fig2d time course): 0.9137
Time 59 min
  relative abundance of OSmod substrate (Fig2d time course): 0.9089
